Legend:
Assay type in all cases: in vivo
[1] = tested on: chickweed (common chickweed, Stellaria media); test: Test D postemergence plant response; settings: for Plant response rating (scale 0 to 100), Chickweed: 16 g ai/ha; for Chickweed plant response rating: 31 g ai/ha, scale 0 to 100 (0 no effect, 100 complete control); for Plant response rating, Chickweed: scale 0 to 100, 0 no effect, 100 complete control
Outline: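 Postemergence spray on plants 2–18 cm tall (1- to 4-leaf stage), grown in pots of peat/vermiculite medium. Plants were kept in a greenhouse for 13–15 days, then visually rated against untreated controls on a 0 (no effect) to 100 (complete control) scale.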

[2] = tested on: galium (catchweed bedstraw, Galium aparine); test: Test B postemergence plant response
Outline: (§1)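 Plants grown in pots of loam soil–sand blend were sprayed postemergence with formulated test chemicals at 2 to 10 cm height, one- to two-leaf stage. After about 10 days in a greenhouse, injury was visually rated against untreated controls on a 0 to 100 scale (0 no effect, 100 complete control).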

[3] = tested on: blackgrass (Alopecurus myosuroides); test: Test B postemergence plant response
Outline: as §1

[4] = tested on: yellow nutsedge (Cyperus esculentus); test: Test D pre-/postemergence plant response; settings: Postemergence; for Plant response rating (scale 0 to 100), Nutsedge, Yellow: 16 g ai/ha; for Plant response rating, Nutsedge, Yellow: 125 g ai/ha
Outline: (§2)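 Plants are held in a greenhouse 13 to 15 days after spraying, then injury is rated by eye relative to controls on a 0 to 100 scale. Treatments are preemergence on freshly sown loam/sand pots or postemergence at 1- to 4-leaf stage in peat-based medium; surfactant-containing solvent formulation.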

[5] = tested on: barnyardgrass (Echinochloa crus-galli); test: Test D pre-/postemergence plant response; settings: Postemergence; for Plant response rating (scale 0 to 100), Barnyardgrass: 16 g ai/ha; for Barnyardgrass plant response rating: 31 g ai/ha, scale 0 to 100 (0 no effect, 100 complete control); for Plant response rating, Barnyardgrass: scale 0 to 100, 0 no effect, 100 complete control
Outline: as §2

[6] = tested on: oilseed rape (Brassica napus); test: Test D pre-/postemergence plant response; settings: Postemergence; for Plant response rating (scale 0 to 100), Oilseed Rape: 16 g ai/ha; for Plant response rating, Oilseed Rape: 125 g ai/ha
Outline: as §2

soybean (Glycine max) = test: Test D pre-/postemergence plant response; settings: Postemergence; for Plant response rating (scale 0 to 100), Soybean: 16 g ai/ha; for Plant response rating, Soybean: 125 g ai/ha
Outline: as §2

[7] = tested on: ragweed (common ragweed, Ambrosia elatior); test: Test D pre-/postemergence plant response; settings: Postemergence; for Plant response rating (scale 0 to 100), Ragweed: 16 g ai/ha; for Plant response rating, Ragweed: 125 g ai/ha
Outline: as §2

corn (Zea mays) = test: Test D pre-/postemergence plant response; settings: Postemergence; for Plant response rating (scale 0 to 100), Corn: 16 g ai/ha; for Corn plant response rating: 31 g ai/ha, scale 0 to 100 (0 no effect, 100 complete control); for Plant response rating, Corn: scale 0 to 100, 0 no effect, 100 complete control
Outline: as §2

[8] = tested on: morningglory (Ipomoea coccinea); test: Test D pre-/postemergence plant response; settings: Postemergence; for Plant response rating (scale 0 to 100), Morningglory: 16 g ai/ha; for Plant response rating, Morningglory: 125 g ai/ha
Outline: as §2

[9] = tested on: pigweed (Amaranthus retroflexus); test: Test D pre-/postemergence plant response; settings: Postemergence; for Plant response rating (scale 0 to 100), Pigweed: 16 g ai/ha; for Plant response rating, Pigweed: 125 g ai/ha
Outline: as §2

[10] = tested on: Italian ryegrass (Lolium multiflorum); test: Test D pre-/postemergence plant response; settings: Postemergence; for Plant response rating (scale 0 to 100), Ryegrass, Italian: 16 g ai/ha; for Plant response rating, Ryegrass, Italian: 125 g ai/ha
Outline: as §2

[11] = tested on: giant foxtail (Setaria faberii); test: Test D pre-/postemergence plant response; settings: Postemergence; for Plant response rating (scale 0 to 100), Foxtail, Giant: 16 g ai/ha; for Foxtail, Giant plant response rating: 31 g ai/ha, scale 0 to 100 (0 no effect, 100 complete control); for Plant response rating, Foxtail, Giant: scale 0 to 100, 0 no effect, 100 complete control
Outline: as §2

[12] = tested on: waterhemp (common waterhemp, Amaranthus rudis); test: Test D pre-/postemergence plant response; settings: Postemergence; for Plant response rating (scale 0 to 100), Waterhemp: 16 g ai/ha; for Plant response rating, Waterhemp: 125 g ai/ha
Outline: as §2

[13] = 125 g ai/ha, postemergence, 0 to 100 scale, 0 no effect, 100 complete control
[14] = Postemergence, 31 g ai/ha, 0 to 100 scale (0 no effect, 100 complete control)
[15] = 31 g ai/ha, scale 0 to 100 (0 no effect, 100 complete control)
[16] = 62 g ai/ha, scale 0 to 100, 0 no effect, 100 complete control
[17] = scale 0 to 100, 0 no effect, 100 complete control

With `FC(Cl)(Cl)c1cc(-c2ccccc2Oc2ncc(Cl)cn2)no1` [Compound 198] the “Plant response rating (scale 0 to 100), Chickweed” value [1] was 5, the “Chickweed plant response rating” value [1] was 60 and the “Plant response rating, Chickweed” value ([1]; 62 g ai/ha) was 60. The “Plant response rating, Chickweed” value ([1]; 125 g ai/ha) was 95, the “Plant response rating, Galium” value [2, 13] was 100 and the “Plant response rating, Galium” value [2, 14] was 100. The “Plant response rating, Blackgrass” value [3, 13] was 40, the “Plant response rating, Blackgrass” value [3, 14] was 10 and the “Plant response rating (scale 0 to 100), Nutsedge, Yellow” value [4] was 5. The “Nutsedge, Yellow plant response rating” value [4, 15] was 5, the “Nutsedge, Yellow plant response rating” value [4, 16] was 15 and the “Plant response rating, Nutsedge, Yellow” value [4, 17] was 10. The “Plant response rating (scale 0 to 100), Barnyardgrass” value [5] was 10, the “Barnyardgrass plant response rating” value [5] was 10 and the “Plant response rating, Barnyardgrass” value ([5]; 62 g ai/ha) was 20. For the same compound, the “Plant response rating, Barnyardgrass” value ([5]; 125 g ai/ha) was 35, the “Plant response rating (scale 0 to 100), Oilseed Rape” value [6] was 30 and the “Oilseed Rape plant response rating” value [6, 15] was 50. For the same compound, the “Oilseed Rape plant response rating” value [6, 16] was 60, the “Plant response rating, Oilseed Rape” value [6, 17] was 90 and the “Plant response rating (scale 0 to 100), Soybean” value (soybean (Glycine max)) was 10. The “Soybean plant response rating” value (soybean (Glycine max); [15]) was 25, the “Soybean plant response rating” value (soybean (Glycine max); [16]) was 30 and the “Plant response rating, Soybean” value (soybean (Glycine max); [17]) was 60. For the same compound, the “Plant response rating (scale 0 to 100), Ragweed” value [7] was 30, the “Ragweed plant response rating” value [7, 15] was 55 and the “Ragweed plant response rating” value [7, 16] was 55. The “Plant response rating, Ragweed” value [7, 17] was 60, the “Plant response rating (scale 0 to 100), Corn” value (corn (Zea mays)) was 5 and the “Corn plant response rating” value (corn (Zea mays)) was 10. For the same compound, the “Plant response rating, Corn” value (corn (Zea mays); 62 g ai/ha) was 15, the “Plant response rating, Corn” value (corn (Zea mays); 125 g ai/ha) was 15 and the “Plant response rating (scale 0 to 100), Morningglory” value [8] was 55. The “Morningglory plant response rating” value [8, 15] was 55, the “Morningglory plant response rating” value [8, 16] was 80 and the “Plant response rating, Morningglory” value [8, 17] was 85. For the same compound, the “Plant response rating (scale 0 to 100), Pigweed” value [9] was 85, the “Pigweed plant response rating” value [9, 15] was 98 and the “Pigweed plant response rating” value [9, 16] was 90. For the same compound, the “Plant response rating, Pigweed” value [9, 17] was 100, the “Plant response rating (scale 0 to 100), Ryegrass, Italian” value [10] was 0 and the “Ryegrass, Italian plant response rating” value [10, 15] was 0. The “Ryegrass, Italian plant response rating” value [10, 16] was 10, the “Plant response rating, Ryegrass, Italian” value [10, 17] was 10 and the “Plant response rating (scale 0 to 100), Foxtail, Giant” value [11] was 10. The “Foxtail, Giant plant response rating” value [11] was 15, the “Plant response rating, Foxtail, Giant” value ([11]; 62 g ai/ha) was 15 and the “Plant response rating, Foxtail, Giant” value ([11]; 125 g ai/ha) was 25. The “Plant response rating (scale 0 to 100), Waterhemp” value [12] was 85, the “Waterhemp plant response rating” value [12, 15] was 85 and the “Waterhemp plant response rating” value [12, 16] was 95. For the same compound, the “Plant response rating, Waterhemp” value [12, 17] was 98.
`FC(F)c1cc(-c2ccccc2Oc2ncc(Br)cn2)on1` [Compound 212] was tested, and the “Plant response rating (scale 0 to 100), Chickweed” value [1] was 10, the “Chickweed plant response rating” value [1] was 30 and the “Plant response rating, Chickweed” value ([1]; 62 g ai/ha) was 30. The “Plant response rating, Chickweed” value ([1]; 125 g ai/ha) was 80, the “Plant response rating, Galium” value [2, 13] was 100 and the “Plant response rating, Galium” value [2, 14] was 60. The “Plant response rating, Blackgrass” value [3, 13] was 50, the “Plant response rating, Blackgrass” value [3, 14] was 10 and the “Plant response rating (scale 0 to 100), Nutsedge, Yellow” value [4] was 10. The “Nutsedge, Yellow plant response rating” value [4, 15] was 5, the “Nutsedge, Yellow plant response rating” value [4, 16] was 10 and the “Plant response rating, Nutsedge, Yellow” value [4, 17] was 5. The “Plant response rating (scale 0 to 100), Barnyardgrass” value [5] was 5, the “Barnyardgrass plant response rating” value [5] was 5 and the “Plant response rating, Barnyardgrass” value ([5]; 62 g ai/ha) was 15. The “Plant response rating, Barnyardgrass” value ([5]; 125 g ai/ha) was 25, the “Plant response rating (scale 0 to 100), Oilseed Rape” value [6] was 10 and the “Oilseed Rape plant response rating” value [6, 16] was 20. For the same compound, the “Plant response rating, Oilseed Rape” value [6, 17] was 35, the “Plant response rating (scale 0 to 100), Soybean” value (soybean (Glycine max)) was 60 and the “Soybean plant response rating” value (soybean (Glycine max); [15]) was 70. The “Soybean plant response rating” value (soybean (Glycine max); [16]) was 85, the “Plant response rating, Soybean” value (soybean (Glycine max); [17]) was 90 and the “Plant response rating (scale 0 to 100), Ragweed” value [7] was 35. The “Ragweed plant response rating” value [7, 15] was 40, the “Ragweed plant response rating” value [7, 16] was 55 and the “Plant response rating, Ragweed” value [7, 17] was 60. The “Plant response rating (scale 0 to 100), Corn” value (corn (Zea mays)) was 5, the “Corn plant response rating” value (corn (Zea mays)) was 5 and the “Plant response rating, Corn” value (corn (Zea mays); 62 g ai/ha) was 10. The “Plant response rating, Corn” value (corn (Zea mays); 125 g ai/ha) was 15, the “Plant response rating (scale 0 to 100), Morningglory” value [8] was 75 and the “Morningglory plant response rating” value [8, 15] was 98. The “Morningglory plant response rating” value [8, 16] was 75, the “Plant response rating, Morningglory” value [8, 17] was 98 and the “Plant response rating (scale 0 to 100), Pigweed” value [9] was 100. The “Pigweed plant response rating” value [9, 15] was 100, the “Pigweed plant response rating” value [9, 16] was 100 and the “Plant response rating, Pigweed” value [9, 17] was 100. The “Plant response rating (scale 0 to 100), Ryegrass, Italian” value [10] was 0, the “Ryegrass, Italian plant response rating” value [10, 15] was 0 and the “Ryegrass, Italian plant response rating” value [10, 16] was 0. For the same compound, the “Plant response rating, Ryegrass, Italian” value [10, 17] was 5, the “Plant response rating (scale 0 to 100), Foxtail, Giant” value [11] was 10 and the “Foxtail, Giant plant response rating” value [11] was 10. For the same compound, the “Plant response rating, Foxtail, Giant” value ([11]; 62 g ai/ha) was 15, the “Plant response rating, Foxtail, Giant” value ([11]; 125 g ai/ha) was 10 and the “Plant response rating (scale 0 to 100), Waterhemp” value [12] was 80. For the same compound, the “Waterhemp plant response rating” value [12, 15] was 98, the “Waterhemp plant response rating” value [12, 16] was 100 and the “Plant response rating, Waterhemp” value [12, 17] was 100.
